Assay results from PubChem BioAssay AID192 (DTP/NCI, 2004).
Toxic doses and inconclusive results are not listed.

System: BDF1 mice, B16 melanoma ip, median survival T/C
Assay: NCI In Vivo Anticancer Drug Screen. Data for tumor model B16 Melanoma (intraperitoneal) in B6D2F1 (BDF1) mice
Details: endpoint: median survival time, higher = longer survival
Outline: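 Mice with transplantable tumors; drug vs vehicle groups; endpoint survival or tumor size; value = T/C.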

O=C1c2ccccc2C(=O)c2c(NCCNCCO)ccc(NCCNCCO)c21 was tested, and the T/C (dose: 16.0 mg/kg/injection, schedule: Q01DX009 (ip), vehicle: Klucel (hydroxypropylcellulose) (HPC)) was 173 % of control, the T/C (dose: 16.0 mg/kg/injection, schedule: Q01DX009 (ip), vehicle: saline with Tween-80) was 186 % of control and the T/C (dose: 16.0 mg/kg/injection, schedule: Q01DX009 (oral), vehicle: acid diluted with saline) was 109 % of control. For the same compound, the T/C (dose: 16.0 mg/kg/injection, schedule: Q01DX009 (oral), vehicle: saline) was 101 % of control, the T/C (dose: 16.0 mg/kg/injection, schedule: Q01DX009 (sc), vehicle: acid diluted with saline) was 156 % of control and the T/C (dose: 16.0 mg/kg/injection, schedule: Q02DX009 (ip), vehicle: saline) was 180 % of control. For the same compound, the T/C (dose: 16.0 mg/kg/injection, schedule: Q03HX008 (ip), vehicle: acid diluted with saline) was 209 % of control, the T/C (dose: 16.0 mg/kg/injection, schedule: Q03HX008 (ip), vehicle: saline) was 117 % of control and the T/C (dose: 16.0 mg/kg/injection, schedule: Q03HX016 (ip), vehicle: acid diluted with saline) was 98 % of control. The T/C (dose: 16.0 mg/kg/injection, schedule: Q04DX003 (ip), vehicle: acid diluted with saline) was 204 % of control, the T/C (dose: 16.0 mg/kg/injection, schedule: Q08DX002 (ip), vehicle: acid diluted with saline) was 173 % of control and the T/C (dose: 16.0 mg/kg/injection, schedule: Q08DX002 (ip), vehicle: saline) was 112 % of control. For the same compound, the T/C (dose: 18.75 mg/kg/injection, schedule: Q01DX001 (ip), vehicle: Klucel (hydroxypropylcellulose) (HPC)) was 111 % of control, the T/C (dose: 32.0 mg/kg/injection, schedule: Q01DX001 (ip), vehicle: acid diluted with saline) was 157 % of control and the T/C (dose: 32.0 mg/kg/injection, schedule: Q01DX001 (ip), vehicle: saline) was 157 % of control. The T/C (dose: 32.0 mg/kg/injection, schedule: Q01DX001 (oral), vehicle: saline) was 106 % of control, the T/C (dose: 32.0 mg/kg/injection, schedule: Q01DX001 (sc), vehicle: acid diluted with saline) was 100 % of control and the T/C (dose: 32.0 mg/kg/injection, schedule: Q01DX005 (ip), vehicle: saline) was 181 % of control. For the same compound, the T/C (dose: 32.0 mg/kg/injection, schedule: Q01DX005 (iv), vehicle: saline) was 119 % of control, the T/C (dose: 32.0 mg/kg/injection, schedule: Q01DX009 (oral), vehicle: acid diluted with saline) was 113 % of control and the T/C (dose: 32.0 mg/kg/injection, schedule: Q01DX009 (oral), vehicle: saline) was 112 % of control. For the same compound, the T/C (dose: 32.0 mg/kg/injection, schedule: Q01DX009 (sc), vehicle: acid diluted with saline) was 114 % of control, the T/C (dose: 32.0 mg/kg/injection, schedule: Q01DX009 (sc), vehicle: saline) was 100 % of control and the T/C (dose: 32.0 mg/kg/injection, schedule: Q02DX009 (ip), vehicle: saline) was 196 % of control. The T/C (dose: 32.0 mg/kg/injection, schedule: Q04DX003 (ip), vehicle: saline) was 153 % of control, the T/C (dose: 32.0 mg/kg/injection, schedule: Q08DX002 (ip), vehicle: acid diluted with saline) was 196 % of control and the T/C (dose: 50.0 mg/kg/injection, schedule: Q01DX001 (ip), vehicle: water) was 151 % of control. For the same compound, the T/C (dose: 64.0 mg/kg/injection, schedule: Q01DX001 (ip), vehicle: acid diluted with saline) was 154 % of control, the T/C (dose: 64.0 mg/kg/injection, schedule: Q01DX001 (ip), vehicle: saline) was 151 % of control and the T/C (dose: 64.0 mg/kg/injection, schedule: Q01DX001 (oral), vehicle: acid diluted with saline) was 109 % of control. The T/C (dose: 64.0 mg/kg/injection, schedule: Q01DX001 (oral), vehicle: saline) was 116 % of control, the T/C (dose: 64.0 mg/kg/injection, schedule: Q01DX001 (sc), vehicle: acid diluted with saline) was 114 % of control and the T/C (dose: 64.0 mg/kg/injection, schedule: Q01DX009 (oral), vehicle: acid diluted with saline) was 100 % of control. For the same compound, the T/C (dose: 64.0 mg/kg/injection, schedule: Q01DX009 (oral), vehicle: saline) was 112 % of control, the T/C (dose: 64.0 mg/kg/injection, schedule: Q02DX009 (ip), vehicle: saline) was 89 % of control and the T/C (dose: 64.0 mg/kg/injection, schedule: Q04DX003 (ip), vehicle: saline) was 213 % of control. For the same compound, the T/C (dose: 64.0 mg/kg/injection, schedule: Q08DX002 (ip), vehicle: acid diluted with saline) was 178 % of control, the T/C (dose: 64.0 mg/kg/injection, schedule: Q08DX002 (ip), vehicle: saline) was 179 % of control and the T/C (dose: 128.0 mg/kg/injection, schedule: Q01DX001 (oral), vehicle: acid diluted with saline) was 105 % of control. The T/C (dose: 128.0 mg/kg/injection, schedule: Q01DX001 (oral), vehicle: saline) was 106 % of control, the T/C (dose: 128.0 mg/kg/injection, schedule: Q01DX009 (oral), vehicle: acid diluted with saline) was 115 % of control and the T/C (dose: 128.0 mg/kg/injection, schedule: Q01DX009 (oral), vehicle: saline) was 112 % of control. The T/C (dose: 128.0 mg/kg/injection, schedule: Q08DX002 (ip), vehicle: saline) was 106 % of control, the T/C (dose: 256.0 mg/kg/injection, schedule: Q01DX001 (oral), vehicle: acid diluted with saline) was 96 % of control and the T/C (dose: 256.0 mg/kg/injection, schedule: Q01DX001 (oral), vehicle: saline) was 116 % of control. For the same compound, the T/C (dose: 512.0 mg/kg/injection, schedule: Q01DX001 (oral), vehicle: saline) was 97 % of control.
